Measurements reported in PMC10449632, “Structural basis for translation inhibition by the glycosylated drosocin peptide” (Nature Chemical Biology, 2023).
No end group written: not given here. *: point of attachment. β‑D‑cellobiosyl = OC[C@H]1O[C@@H](O[C@H]2[C@H](O)[C@@H](O)[C@H](*)O[C@@H]2CO)[C@H](O)[C@@H](O)[C@@H]1O; β‑D‑lactosyl = OC[C@H]1O[C@@H](O[C@H]2[C@H](O)[C@@H](O)[C@H](*)O[C@@H]2CO)[C@H](O)[C@@H](O)[C@H]1O; β‑D‑maltosyl = OC[C@H]1O[C@H](O[C@H]2[C@H](O)[C@@H](O)[C@H](*)O[C@@H]2CO)[C@H](O)[C@@H](O)[C@@H]1O; α‑D‑GlcNAc = CC(=O)N[C@@H]1[C@@H](O)[C@H](O)[C@@H](CO)O[C@@H]1*; βGlc = OC[C@H]1O[C@@H](*)[C@H](O)[C@@H](O)[C@@H]1O; βGal = OC[C@H]1O[C@@H](*)[C@H](O)[C@@H](O)[C@H]1O

Experiments:
[1] = tested on: in vitro translation, E. coli PURExpress system, firefly luciferase (Fluc) mRNA; settings: using the same system; cited from earlier work
Protocol: Unmodified wild-type drosocin and Dro-3P have been reported to inhibit in vitro translation reactions[25],[26]; however, the naturally occurring glycosylated forms of drosocin have not been previously tested. To investigate this, we compared the effect of increasing concentrations (0–150 μM) of modified Dro1 and Dro2 with unmodified Dro, Dro-3P and Api137 using a cell-free in vitro translation system and firefly luciferase (Fluc) mRNA as a template (Fig. 1e), as we have used previously for assessing the activity of other PrAMPs[4],[6],[8],[9],[32],[33].

[2] = tested on: ribosomes at the stop codon of MLIF-UAA mRNA in the presence of RF1; assay: Toeprinting assay on MLIF*-mRNA with RF1; type: biochemical, Escherichia coli; settings: for Relative stop band intensity signal: 30 μM compound, MLIF*-mRNA, plotted values
Protocol: (§1) To ascertain which step during protein synthesis is affected by drosocin, we performed toeprinting assays, where reverse transcription is used to monitor the position of ribosomes on a defined mRNA[34].
(§2) Toeprinting reactions were performed as described previously. In brief, reactions were performed with 6 μl of PURExpress ΔRF123 in vitro protein synthesis system (NEB) in the presence of 1× RF3 and either 1× or 10× of RF1 or RF2 (relative to the manufacturer’s recommendation). The reactions were carried out on an MLIF-UAA-toeprint template (5′-[…]-3′, ORF start codon and stop codon are underlined bold), containing T7 promoter, a ribosome binding site, an MLIF-coding ORF and the NV1* primer binding site. The template is a version of the ErmBL template with a truncated ORF and addition of a isoleucine coding codon at the third position in the ORF. The template was generated by polymerase chain reaction of two overlapping 77-nt- and 78-nt-long primers. The reactions contained 30 ng of the MLIF-UAA-toeprint DNA template. The reactions were supplemented with Api137, thiostrepton or one of the drosocin derivates as specified. The transcription–translation reactions were incubated for 15 minutes at 37 °C. The reverse transcription on the MLIF-short-UAA toeprint template was carried out using AMV RT and primer NV*1-Alexa 647 (5′-[…]-3′). The transcription–translation reactions were incubated with AMV RT and NV*1-Alexa 647 for 20 minutes at 37 °C. mRNA degradation was carried out by the addition of 1 µl of 5 M NaOH. The reactions were neutralized with 0.7 µl of 25% HCl, and nucleotide removal was performed with the QIAquick Nucleotide Removal Kit (Qiagen). The samples were dried under vacuum for 2 hours at 60 °C for subsequent gel electrophoresis. The 6% acrylamide gels were scanned on a Typhoon scanner (GE Healthcare).

[3] = tested on: ribosomes at the stop codon of MLIF-UAA mRNA in the presence of RF2; assay: Toeprinting assay on MLIF*-mRNA with RF2; type: biochemical, Escherichia coli; settings: Fig 1h, RF2 (10X), 30 μM compound, plotted values
Protocol: as §1, §2

[4] = tested on: E. coli Keio wt (BW25113); assay: Antibiotic susceptibility (growth) assay, E. coli Keio wild-type; type: cell-based, Escherichia coli; settings: 30 μM peptide; for Average of normalized growth: average of three biological replicates; for growth inhibition in rich medium: rich (LB) medium
From the text: (§3) Many PrAMPs use the SbmA transporter to pass through the E. coli inner membrane[4],[10],[31]; however, whether drosocin also uses SbmA remains, to our knowledge, unknown. To address this, we monitored the effect of the presence of diverse drosocin peptides (Fig. 1a,b and Supplementary Fig. 1a) on the growth of the wild-type E. coli strain BW25113 containing SbmA or lacking SbmA (ΔsbmA) (Fig. 1c,d). We compared unmodified drosocin (Dro) with various modified forms (Fig. 1a,b). The modified forms included the naturally occurring Dro1 and Dro2 that carry either a monosaccharide (α-D-GalNAc) or disaccharide (β-D-Gal(1→3)-α-D-GalNAc) attached to Thr11, respectively (Fig. 1b). In addition, we examined the previously reported[23],[24] drosocin derivatives bearing β-D-Maltosyl (Dro3), α-D-GlcNAc (Dro4), β-D-Gal (Dro5), β-D-Glc (Dro6), β-D-Lactosyl (Dro7) and β-D-Cellobiosyl (Dro8) modifications on Thr11 (Fig. 1a,b and Supplementary Fig. 1a). Finally, we also included in our analysis the synthetic unmodified drosocin derivative with proline substitutions at positions 7, 11 and 12 (Dro-3P) (Fig. 1a), which was previously reported to have similar antimicrobial activity to the monosaccharide form of drosocin[25]. Growth was monitored in both rich (LB) and minimal medium in the presence of 30 μM of each peptide and normalized with the growth in the absence of the compounds (Methods). […] We also observed no inhibition for Dro2 nor for any of the β-linked disaccharides (Dro3, Dro6 or Dro7). […] By contrast, all drosocin peptides inhibited growth of the E. coli BW25113 strain in minimal medium, albeit to different extents (Fig. 1d).
(§4) Strains E. coli Keio wild-type and E. coli Keio ΔsbmA used from the Keio knockout collection (Horizon, https://horizondiscovery.com). Wild-type E. coli SQ110 (ΔrrnGADBHC(ptRNA67))[47] and SQ171 (ΔrrnGADEHBC(pKK3535, ptRNA67))[47] strains and related mutants E. coli SQ110 A2059G and E. coli SQ171 A2503G were obtained from the previous Api137 study. E. coli strains SQ171 bearing A752G, U2609C and A752G:U2609C mutations[43] and E. coli SQ171 U2609G[48] were generated previously.
(§5) The susceptibility of E. coli strains to compounds was evaluated by monitoring the bacterial growth in presence of increasing concentrations of the compound of interest. In brief, bacteria were inoculated in a total volume of 100 μl of medium contained in a well of a 96-well microplate (round bottom, with cap, sterile; Sarstedt). The medium used was either LB, as rich medium, or ATCC medium (778 Davis and Mingioli glucose minimal medium), as minimal medium. Before inoculation, bacteria were grown up to exponential phase and then inoculated into the culture mix, containing selective antibiotic if necessary, with an initial optical density at 600 nm (OD600) of 0.05. Values measured from wells containing just the medium were used as a blank. The growth in each well was monitored by measuring the OD600 every 10 minutes for a total of 20 hours at 37 °C with shaking using a plate reader (Tecan Infinite 200 PRO). The inhibition resulting from a compound’s concentration was evaluated by normalizing the OD600 at t = 12 hours (corresponding to the end of the log phase) from the treated culture to the untreated one. For each compound, the concentrations tested were 5 μM, 10 μM and 30 μM. Each single titration assay was done in triplicate with individually prepared culture mixes. For each concentration, the standard deviation was calculated, taking into account each single replica and its specific technical error from the plate reader.

[5] = tested on: E. coli Keio ∆sbmA (BW25113 ΔsbmA); assay: Antibiotic susceptibility (growth) assay, E. coli Keio ΔsbmA; type: cell-based, Escherichia coli; settings: 30 μM peptide, average of three biological replicates
From the text: as §3, §4, §5

[6] = tested on: in vitro translation, E. coli PURExpress system, firefly luciferase (Fluc) mRNA; assay: In vitro translation assay with Fluc reporter; type: biochemical, Escherichia coli
Protocol: To investigate this, we compared the effect of increasing concentrations (0–150 μM) of modified Dro1 and Dro2 with unmodified Dro, Dro-3P and Api137 using a cell-free in vitro translation system and firefly luciferase (Fluc) mRNA as a template (Fig. 1e), as we have used previously for assessing the activity of other PrAMPs[4],[6],[8],[9],[32],[33].
The in vitro translation assay was carried out as described previously[4],[8] using the E. coli PURExpress system (New England Biolabs (NEB), E6800S). Then, 1 µl of antibiotic solution was added to 5 µl of PURExpress reaction mix. Each reaction contained 10 ng μl^−1 of mRNA encoding the Fluc, which was in vitro transcribed from a pIVEX-2.3MCS vector containing the Fluc gene using T7 polymerase (Thermo Fisher Scientific). The reaction mix was incubated for 30 minutes at 32 °C while shaking (600 r.p.m.). Reactions were stopped with 5 µl of kanamycin (50 mg ml^−1) and transferred into a 96-well microplate (Greiner Lumitrac, non-binding, white, chimney). Next, 40 µl of luciferase assay substrate solution (Promega, E1501) was added, and luminescence was measured using a plate reader (Tecan Infinite 200 PRO). Nuclease-free water was added instead of antibiotic as control. Absolute luminescence values were normalized using reactions without antibiotic. All assays were done as triplicates with individually prepared reaction mix.

| Substance | IC50 [1] [nM] | Relative stop band intensity signal ([2]; Fig 1f, RF1 (1X)) | Relative stop band intensity signal ([2]; Fig 1g, RF1 (10X)) | Relative stop band intensity signal [3] | Average of normalized growth ([4]; LB rich medium) [%] | Average of normalized growth ([4]; Minimal medium) [%] | Average of normalized growth ([5]; LB rich medium) [%] | Average of normalized growth ([5]; Minimal medium) [%] | growth inhibition in rich medium [4] | maximum inhibition of in vitro translation ([6]; at the highest concentration tested of 150 μM, Fluc mRNA, luminescence) [%] | activity in in vitro translation assays ([6]; Fluc reporter, increasing concentrations of peptide) | stalling of ribosomes at the stop codon ([2]; toeprinting, 30 μM peptide, 1× or 10× RF1 (trend also with ten-fold RF2)) |
| --- | --- | --- | --- | --- | --- | --- | --- | --- | --- | --- | --- | --- |
| Bac7: type I PrAMP of mammalian origin (RRIRPRPPRLPRPRPRPLPFPRPGPRPIPRPLPFPRPGPRPIPRPLPFPRPGPRPIPRP; Bactenecin 7; UniProt P19661 131-189, looked up) | < 1000 | – | – | – | – | – | – | – | – | – | – | – |
| Dro8: drosocin derivative bearing β-D-Cellobiosyl on Thr11 (GKPRPYSPRPT(β‑D‑cellobiosyl)SHPRPIRV; UniProt P36193 22-40, looked up) | – | 0.1518 | 0.3011 | 0.03669 | 97 | 85 | 102 | 112 | – | – | – | – |
| Dro2: naturally occurring drosocin carrying disaccharide β-D-Gal(1→3)-α-D-GalNAc attached to Thr11 (GKPRPYSPRPTSHPRPIRV; not fully specified (residue 11); UniProt P36193 22-40, looked up) | – | 0.3007 | 0.625 | 0.06699 | 92 | 25 | 96 | 101 | no inhibition | 40 | – | – |
| Dro-R18A (GKPRPYSPRPTSHPRPIAV; ends and bridges not checked; UniProt P36193 22-40, looked up, variant R18A) | – | – | – | – | – | – | – | – | – | – | complete loss of activity | – |
| Dro7: drosocin derivative bearing β-D-Lactosyl on Thr11 (GKPRPYSPRPT(β‑D‑lactosyl)SHPRPIRV; UniProt P36193 22-40, looked up) | – | 0.1333 | 0.3035 | 0.0472 | 97 | 50 | 101 | 109 | no inhibition | – | – | – |
| Dro6: drosocin derivative bearing β-D-Glc on Thr11 (GKPRPYSPRPT(βGlc)SHPRPIRV; UniProt P36193 22-40, looked up) | – | 0.04582 | 0.4077 | 0.01282 | 94 | 72 | 99 | 106 | no inhibition | – | – | – |
| Dro3: drosocin derivative bearing β-D-Maltosyl on Thr11 (GKPRPYSPRPT(β‑D‑maltosyl)SHPRPIRV; UniProt P36193 22-40, looked up) | – | 0.2727 | 0.5086 | 0.02902 | 97 | 41 | 97 | 105 | no inhibition | – | – | – |
| Dro5: drosocin derivative bearing β-D-Gal on Thr11 (GKPRPYSPRPT(βGal)SHPRPIRV; UniProt P36193 22-40, looked up) | – | 0.2051 | 0.5557 | 0.04941 | 93 | 24 | 100 | 107 | no inhibition | – | – | – |
| Dro4: drosocin derivative bearing α-D-GlcNAc on Thr11 (GKPRPYSPRPT(α‑D‑GlcNAc)SHPRPIRV; UniProt P36193 22-40, looked up) | – | 0.3375 | 0.6077 | 0.166 | 60 | 38 | 97 | 103 | growth inhibition | – | – | to a lesser extent |
